{"source": "patent US20250205204A1", "about": "“Transcription Factor Brn2 Inhibitory Compounds for Use as Therapeutics” (The University of British Columbia, priority 2021, published 2025)", "key": {"[1]": {"tested_on": "42D^ENZR cells", "assay": "Cell proliferation, BRN2 expressing 42D cells (crystal violet)", "type": "cell-based", "conditions": "about 72 hours", "summary_of_the_method": "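42D^ENZR (~7000/well) and 16D^CRPC (~5000/well) cells plated, compound added next day from 3× media stocks. After ~72 hours, cells fixed with glutaraldehyde, stained with crystal violet, dye eluted in Sorensen solution; absorbance read at 590 nm.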"}, "[2]": {"tested_on": "16D^CRPC cells", "assay": "Cell proliferation, 16D cells that do not express BRN2 (crystal violet)", "type": "cell-based", "conditions": "result in words", "procedure": "Step 3: Cell Proliferation\nPlate 42DE^NZR (˜7000 cells per well) and 16D^CRPC (˜5000 cells per well) cells in 96 well plate with a volume of 100 μL per well. • 2. Next day 1 mL aliquots of media are combined with 3× the desired concentration of compounds. The aliquots are vortexed and 50 μL of each 3× concentration is added to the 100 μL of media in each well to give the ix desired concentration.\nThe following are the desired concentrations:\n0, 10 nM, 100 nM, 500 nM, 1 μM, 2.5 μM, 5 μM, 10 μM, 15 μM, 20 μM, 30 μM. • 3. Approximately 72 hours later, 17 μL of 10% Glutaraldehyde is added to each well and plates are placed on a shaker for 20-30 minutes. • 4. Media is washed off the fixed cells by slow submersion in a container of water. Then the water is removed by tapping the plate upside down. • 5. 75 μL of Crystal Violet™ solution is added into the 96 well plates and placed on a shaker for ˜30 minutes. • 6. Media is washed off the fixed cells by repeated slow submersion in a container of water and the plates are allowed to dry over-night. • 7. Next day, 75 μL of Sorensen Solution is accurately pipetted into each well. The plates placed on a shaker for ˜30 minutes. • 8. Absorbance is measured in the plate at 590 nm. Compounds that Show Specificity Towards 42DE^NZR Cells Vs 16D^CRPC Cells Progress to Step 4.\nIn TABLES 1 and 2, in columns Met Stab % and T½, refers to compound's stability in MLM. There is a distinction in TABLES 1 and 2 difference between “Active” and “Specific” or “Specificity”. Some of the compounds were first tested to quantify inhibition of BRN2 transcriptional activity in a luciferase assay to determine BRN2 inhibition at 10 μM and 30 μM concentrations. […] Generally, compounds having low inhibitory activity were compounds with less than about ˜30% or activation at either concentration (i.e. 10 μM or 30 μM). Furthermore, some compounds that lacked specificity could also show off-target effects."}}, "data": [{"smiles": "O=C1/C(=N\\Nc2nc3ccccc3s2)Cc2ccccc21", "note": "[7-62, (Z)-2-(2-(benzo[d]thiazol-2-yl)hydrazineylidene)-2,3-dihydro-1H-inden-1-one]", "values": [{"measurement": "Growth Specificity", "setting": "[1]; 42D (express BRN2) versus 16D (no BRN2) cells, result in words", "value": "Specific to 42D"}, {"measurement": "IC50", "setting": "[1]; 42D cells, proliferation, read-out: 42D IC50", "value": 1000, "unit": "nM"}, {"measurement": "effect on 16D", "setting": "[2]", "value": "no effect on 16D"}]}]}
